Measured values taken from patent US20260272950A1, “METHOD OF TREATMENT OF A NEURONAL PATHOLOGY RELATED TO HYPOXIA, HYPOGLYCEMIA AND/OR HYPERGLYCEMIA” (priority 2019, published 2026).

Legend:
[1] = tested on: primary culture of cortical neurons; assay: MTT neuronal survival evaluation test in in vitro model of ischemia/reperfusion (OGD); type: cell-based, mouse; details: for neuronal protection (MTT): Example 6, FIG. 6, 100 nM, 4 h of OGD then 24 h of reperfusion
Description: (§1) More specifically, the cells taken are grown in a Neurobasal™ medium (ref. 21103049 ThermoFisher Scientific) to which L-glutamine and B27 supplement 50X (ref. 17504044 ThermoFisher Scientific) have been added (step 2). The neurons from the primary culture are then isolated and purified. It should be noted that it is the culture conditions in themselves which make it possible to obtain a purified culture of neurons from the dissociation of the embryonic cortexes. Oxygen and glucose deprivation (OGD) is then carried out (step 3) on these neurons in order to mimic as closely as possible what happens in vivo during a stroke, that is to say a decrease in oxygen and glucose supply due to a decrease in blood perfusion for the cells. In order to carry out this oxygen and glucose deprivation mimicking ischemia, the neurons are placed, for 4 h, in an incubator of which the atmosphere has an oxygen content of approximately 1% and with the culture medium being replaced with a glucose-free medium (step 3). Since the ischemia model is an “ischemia/reperfusion” model, the neurons are then placed in a medium containing glucose under normoxic conditions for 24 h (reperfusion) (step 4) following the ischemia step. Neuron group A is a group of neurons having been treated with a solution of compound of formula (I) during the OGD and the reperfusion, that is to say that a molecule of table 1 is added to glucose-free medium as soon as the oxygen and glucose deprivation begins (step 3). […] The concentration of the other molecules of table 1 is 100 nmol·L^−1 in the glucose-free medium. Neuron group B is a group of neurons having been treated with a solution of DX243 during the reperfusion only (step 4), in order to be closer to what occurs clinically, namely the possible treatment only after several hours with a conventional treatment. The DX243 solution is added to the glucose-free medium as soon as the reperfusion begins (step 4). The DX243 concentration is between 1 nmol. L^−1 and 1 μmol·L^−1 in the glucose-free medium.
(§2) The negative control consists of a group of neurons undergoing OGD (step 3) followed by reperfusion (step 4) without DX243 being present. This group of neurons is called “Ctrl” in FIGS. 2 to 4. The normal control consists of a group of neurons from the primary culture placed under normoxic conditions for 28 h. The normal control is called “normox” in FIGS. 2 to 4. The positive control consists of a group of neurons from the primary culture having undergone OGD for 4 h (step 3) in the presence of roscovitine, which is a cell cycle inhibitor, leading to neuronal protection, followed by reperfusion for 24 h (step 4). The positive control is called “ROSCO” in FIGS. 2 to 4.
(§3) At the end of the reperfusion (step 4), 24 h after the OGD, the survival of the neurons is evaluated by means of three different tests: an immunocytochemical test 5, an MTT (3-(4,5-dimethylthiazol-2-yl)-2,5-diphenyltetrazolium bromide) test 6 and a test based on the cell membrane integrity via the use of trypan blue 7. The results are then compared to the results of the three control-group survival tests.
In order to confirm the results obtained with DX243, a test based on the metabolic activity of the neurons was carried out to evaluate neuronal survival in another way. This test is based on the use of the tetrazolium salt MTT (3-(4,5-dimethylthiazol-2-yl)-2,5-diphenyltetrazolium bromide). The tetrazolium is reduced, by the mitochondrial succinate dehydrogenase of the active live cells, into formazan, a purple-colored precipitate. The amount of precipitate formed is proportional to the amount of live cells but also to the metabolic activity of each cell. Thus, a simple assay of the optical density at 550 nm by spectroscopy makes it possible to determine the relative amount of live and metabolically active cells. […]

[2] = tested on: primary culture of cortical neurons; assay: Neuronal survival evaluation via trypan blue (cell membrane integrity) in in vitro model of ischemia/reperfusion (OGD); type: cell-based, mouse; details: for overall conclusion: neuroprotective effect against cerebral ischemia: conclusion drawn from all of the results (Examples 2 to 8); for neuronal protection (trypan blue): Example 7, FIG. 7, 4 h of OGD then 24 h of reperfusion
Description: as §1, §2, §3
A third cell survival test in the case of the use of DX243, based on cell membrane integrity, which is ruptured in dead cells, was carried out. The latter test uses trypan blue which will stain the dead cells blue. The calculation of the percentage of live cells was consequently performed by counting the proportion of blue and non-blue cells, and related to the percentage of live cells observed in the normox group. The results obtained were reported in graph A of FIG. 4 for group A and in graph B of FIG. 4 for group B.
For all the molecules of table I other than DX243 used on group A, the third cell survival test was carried out. The results obtained were reported on the graph of FIG. 5, with the results obtained with DX243 being included therein. The sign NT means not treated. […]

[3] = tested on: primary culture of cortical neurons; assay: Immunocytochemical test for neuronal survival (DAPI, CC3, TUJ1) in in vitro model of ischemia/reperfusion (OGD); type: cell-based, mouse
Description: as §1
The negative control consists of a group of neurons undergoing OGD (step 3) followed by reperfusion (step 4) without DX243 being present. This group of neurons is called “Ctrl” in FIGS. 2 to 4. […]
as §3, with “The results are then compared to the results of the three control-group survival tests.” left out
A first series of images is taken with chemical labelling by fluorescence. […] A second series of images is taken with labelling by fluorescence using the CC3 antibody. […]

[4] = tested on: male murine model of stroke, called Middle Cerebral Artery Occlusion (MCAO); assay: In vivo stroke test, Middle Cerebral Artery Occlusion (MCAO) followed by reperfusion; parameters: species or system mouse; details: DX243 50 mg/Kg at reperfusion after 1 h occlusion
[5] = Example 5, FIG. 5, group A, 100 nmol·L^−1 during 4 h OGD and 24 h reperfusion
[6] = concentration not printed in the sentence (100 nmol·L^−1 per Example 1)
[7] = 4 h OGD + 24 h reperfusion, DX243 treatment compared with the Ctrl group
[8] = observed at 24 h, vs non-treated (Ctrl) mice

Compound	neuronal protection (MTT) [1]	overall conclusion: neuroprotective effect against cerebral ischemia [2]	survival rate compared with DX243 [2, 5]	other results
CC(=O)NCCCNCCCCN[C@@H]1CC2C3CC[C@H](C(C)CCCC(C)C)[C@@]3(C)CCC2[C@@]2(C)CC[C@H](O)C[C@]12O (some centres unmarked) [DX249]	neuroprotective effect	neuroprotective effect against cerebral ischemia		
CC(C)CCCC(C)[C@H]1CCC2C3=C[C@@H](NCCCNCCCCN)[C@@]4(O)C[C@@H](O)CC[C@]4(C)C3CC[C@@]21C (some centres unmarked) [DX242]	neuroprotective effect	neuroprotective effect against cerebral ischemia	greater than that of DX243	neuronal protection (trypan blue) [2, 6]: neuroprotective effect
CC(C)CCCC(C)[C@H]1CCC2C3C[C@@H](NCCCN(CCCCNC(=O)OC(C)(C)C)C(=O)OC(C)(C)C)[C@@]4(O)C[C@@H](O)CC[C@]4(C)C3CC[C@@]21C (some centres unmarked) [DX243BOC]			lower than that of the group treated with DX243	survival rate compared with NT neurons having undergone OGD and reperfusion [2, 5]: lower than that of the group treated with DX243 and than that of the NT group having undergone OGD and reperfusion
CC(C)CCCC(C)[C@H]1CCC2C3C[C@@H](NCCCNCCCCNCCCN)[C@@]4(O)C[C@@H](O)CC[C@]4(C)C3CC[C@@]21C (some centres unmarked) [DX301]	neuroprotective effect	neuroprotective effect against cerebral ischemia		
CC(C)CCCC(C)[C@H]1CCC2C3C[C@@H](NCCc4cnc[nH]4)[C@@]4(O)C[C@@H](O)CC[C@]4(C)C3CC[C@@]21C (some centres unmarked) [DX101]	neuroprotective effect	neuroprotective effect against cerebral ischemia		
CC(C)CCCC(C)[C@H]1CCC2C3C[C@@H](NCCCCNCCCN)[C@@]4(O)C[C@@H](O)CC[C@]4(C)C3CC[C@@]21C (some centres unmarked) [DX245]	significant neuronal protection	neuroprotective effect against cerebral ischemia	greater than that of DX243	neuronal protection (trypan blue) ([2]; 10 nM): neuroprotective effect; neuronal protection (trypan blue) ([2]; 100 nM): significant neuronal protection; neuronal protection (trypan blue) ([2]; 1000 nM): neuroprotective effect
CC(C)CCCC(C)[C@H]1CCC2C3=C[C@@H](NCCCNCCCCNCCCN)[C@@]4(O)C[C@@H](O)CC[C@]4(C)C3CC[C@@]21C (some centres unmarked) [DX302]	neuroprotective effect	neuroprotective effect against cerebral ischemia		
CC(C)CCCC(C)[C@H]1CCC2C3C[C@@H](NCCCCN)[C@@]4(O)C[C@@H](O)CC[C@]4(C)C3CC[C@@]21C (some centres unmarked) [DX401]	neuroprotective effect	neuroprotective effect against cerebral ischemia		
CC(C)CCCC(C)[C@H]1CCC2C3=C[C@@H](NCCCCNCCCN)[C@@]4(O)C[C@@H](O)CC[C@]4(C)C3CC[C@@]21C (some centres unmarked) [DX244]	neuroprotective effect	neuroprotective effect against cerebral ischemia	greater than that of DX243	neuronal protection (trypan blue) [2, 6]: neuroprotective effect
CC(C)CCCC(C)[C@H]1CCC2C3C[C@@H](NCCCNCCCCN)[C@@]4(O)C[C@@H](O)CC[C@]4(C)C3CC[C@@]21C (some centres unmarked) [DX243]	significant neuronal protection	neuroprotective effect against cerebral ischemia		protection against neuronal death ([3]; 4 h OGD + 24 h reperfusion, DX243 during OGD and reperfusion, or only during reperfusion, vs Ctrl group): partially protect against neuronal death; proportion of cells undergoing apoptosis (CC3 antibody, activated caspase 3) [3, 7]: decrease in the proportion of cells undergoing apoptosis; proportion of live cells [3, 7]: increase in the proportion of live cells; neuron protection, post-OGD treatment for 24 h (reperfusion only) compared with treatment during OGD and reperfusion ([3]; group B, DX243 only during 24 h reperfusion): protects the neurons even more efficiently; protection against decrease of metabolically active cells (survival) following OGD ([1]; 4 h OGD + 24 h reperfusion, groups A and B, vs Ctrl group): partially protects against this decrease in survival; effect in group treated only during reperfusion compared with group A ([1]; group B, DX243 only during the reperfusion for 24 h): all the more marked; percentage of live cells (membrane integrity) related to normox group ([2]; 4 h OGD + 24 h reperfusion, groups A and B, mainly 1 to 100 nmol·L^−1): restores the percentage of live cells to levels close to that observed in the normox group; neuronal protection (trypan blue) ([2]; 1000 nM): neuroprotective effect; neuronal protection (trypan blue) ([2]; concentrations ranging from 1 to 100 nM): significant neuronal protection; behavioral deficits (neuroscore) ([4]; observed at 24 h, living mice, vs non-treated (Ctrl) mice): decrease in the behavioral deficits; percentage of dead mice [4, 8]: decrease in the percentage of dead mice; size of the lesion (infarcted region, TTC staining) [4, 8]: decrease in the size of the lesion; correlation between the decrease in blood flow (Laser Doppler Flowmetry) and the consequences of the stroke ([4]; treated mice): there does not appear to be any correlation
